In brackets after ≈: the same amount, converted by molar mass. Activity calls are given as the source filed them. No cut-off for these calls is given here.
Columns and labels:
[1] = tested on: Candida albicans; assay: Antifungal activity against Candida albicans BWP17 assessed as zone of inhibition at 0.5 mg/ml for 48 hrs by disk diffusion method (reference value: 0.6 cm); assay type: functional
[2] = tested on: Candida albicans; assay: Antifungal activity against Candida albicans BWP17 assessed as zone of inhibition at 1 mg/ml for 48 hrs by disk diffusion method (reference value: 0.6 cm); assay type: functional
[3] = tested on: Candida albicans; assay: Antifungal activity against Candida albicans BWP17 assessed as zone of inhibition at 2 mg/ml for 48 hrs by disk diffusion method (reference value: 0.6 cm); assay type: functional
[4] = tested on: Candida albicans; assay: Antifungal activity against Candida albicans BWP17 after 48 hrs by broth dilution method; assay type: functional; conditions: BWP17, 48 h
[5] = tested on: Candida albicans; assay: Antifungal activity against Candida albicans BWP17 at 1.25 mg/ml after 48 hrs by broth dilution method; assay type: functional; conditions: BWP17, BWP17, 48 h
[6] = tested on: Candida albicans; assay: Antifungal activity against Candida albicans BWP17 at 0.6 mg/ml after 48 hrs by broth dilution method; assay type: functional; conditions: BWP17, BWP17, 48 h
[7] = tested on: Candida albicans; assay: Antifungal activity against Candida albicans BWP17 at 0.3 mg/ml after 48 hrs by broth dilution method; assay type: functional; conditions: BWP17, BWP17, 48 h
[8] = tested on: Candida albicans; assay: Antifungal activity against Candida albicans BWP17 at 0.16 mg/ml after 48 hrs by broth dilution method; assay type: functional; conditions: BWP17, BWP17, 48 h
[9] = tested on: Candida albicans; assay: Antifungal activity against Candida albicans BWP17 at 0.08 mg/ml after 48 hrs by broth dilution method; assay type: functional; conditions: BWP17, BWP17, 48 h
[10] = tested on: Candida albicans; assay: Antifungal activity against Candida albicans BWP17 at 0.04 mg/ml after 48 hrs by broth dilution method; assay type: functional; conditions: BWP17, BWP17, 48 h
[11] = tested on: Candida albicans; assay: Antifungal activity against Candida albicans BWP17 assessed as mild growth inhibition at 400 ug/ml after 24 hrs by spot assay; assay type: functional, organism-based
[12] = tested on: Candida albicans; assay: Antifungal activity against Candida albicans BWP17 at 400 ug/ml after 48 hrs by spot assay; assay type: functional, organism-based
[13] = tested on: Candida albicans; assay: Antifungal activity against Candida albicans BWP17 at > MIC80 compound added to secondary culture for 3 days by spot assay; assay type: functional, organism-based
[14] = tested on: Candida albicans; assay: Antifungal activity against Candida albicans BWP17 at MIC80 for 3 days by spot assay; assay type: functional, organism-based
[15] = tested on: Candida albicans; assay: Antifungal activity against Candida albicans BWP17 at MIC80 for 3 days by spot assay in presence of ketoconazole; assay type: functional, organism-based
[16] = tested on: Candida albicans; assay: Antifungal activity against Candida albicans BWP17 at 1/10th of MIC80 for 3 days by spot assay; assay type: functional, organism-based
[17] = tested on: Candida albicans; assay: Antifungal activity against Candida albicans BWP17 at 1/10th of MIC80 for 3 days by spot assay in presence of ketoconazole; assay type: functional, organism-based
[18] = tested on: Candida albicans; assay: Antifungal activity against Candida albicans BWP17 at MIC80 after 2 days by spot assay in presence of terbinafine; assay type: functional, organism-based
[19] = tested on: Candida albicans; assay: Antifungal activity against Candida albicans BWP17 at MIC80 after 3 days by spot assay in presence of terbinafine; assay type: functional, organism-based
[20] = tested on: Candida albicans; assay: Antifungal activity against Candida albicans BWP17 at 62.5 ug/ml for 3 days by spot assay in presence of terbinafine; assay type: functional, organism-based
[21] = tested on: Candida albicans; assay: Antifungal activity against Candida albicans BWP17 assessed as cell wall damage measured as cell clumping at MIC80 by confocal microscopic analysis; assay type: functional, organism-based
[22] = tested on: Candida albicans; assay: Antifungal activity against Candida albicans BWP17 assessed as cell wall damage measured as cell clumping at MIC80 by confocal microscopic analysis in presence of ketoconazole; assay type: functional, organism-based
[23] = tested on: Candida albicans; assay: Antifungal activity against Candida albicans BWP17 assessed as increase in chitin level at MIC80 by CFW staining based microscopic analysis in presence of ketoconazole; assay type: functional, organism-based
[24] = tested on: Candida albicans; assay: Antifungal activity against Candida albicans BWP17 assessed as increase in chitin level at MIC80 by CFW staining based microscopic analysis; assay type: functional, organism-based
[25] = tested on: Candida albicans; assay: Antifungal activity against Candida albicans BWP17 assessed as increase in chitin level at 1/10th of MIC80 by spot assay in presence of CFW; assay type: functional, organism-based
[26] = tested on: Candida albicans; assay: Antifungal activity against Candida albicans BWP17 assessed as cell shrinkage and deposition of cellular content on cell surface at 312.5 ug/ml by scanning electron microscopic analysis; assay type: functional, organism-based
[27] = tested on: Candida albicans; assay: Antifungal activity against Candida albicans BWP17 assessed as cell shrinkage and deposition of cellular content on cell surface at < MIC80 by scanning electron microscopic analysis; assay type: functional, organism-based
[28] = tested on: Candida albicans; assay: Antifungal activity against Candida albicans BWP17 assessed as cell shrinkage and deposition of cellular content on cell surface at 312.5 ug/ml by scanning electron microscopic analysis in presence of ketocanozole; assay type: functional, organism-based
[29] = tested on: Candida albicans; assay: Antifungal activity against Candida albicans BWP17 assessed as necrotic cells incubated for overnight by PI staining based microscopic analysis; assay type: functional, organism-based
[30] = tested on: Candida albicans; assay: Antifungal activity against Candida albicans BWP17 assessed as necrotic cells at 312.5 ug/ml incubated for overnight by PI staining based microscopic analysis in presence of ketoconazole; assay type: functional, organism-based
[31] = tested on: Candida albicans; assay: Antifungal activity against Candida albicans BWP17 assessed as necrotic cells at […] incubated for overnight by PI staining based microscopic analysis; assay type: functional, organism-based

For O=C(O)CC[C@H](NC(=O)C(=O)c1cn(Cc2cn(-c3ccccc3)nn2)c2ccccc12)C(=O)O, the Activity [1] was 0.8 cm, the Activity [2] was 1.2 cm and the Activity [3] was 2.5 cm. The MIC80 [4] was 312 µg/mL (≈ 657 µM), the inhibition at 1250 µg/mL [5] was 84% and the inhibition at 600 µg/mL [6] was 84%. It also gave an inhibition at 300 µg/mL [7] of 81%, an inhibition at 160 µg/mL [8] of 33% and an inhibition at 80 µg/mL [9] of 18%. For the same compound, the inhibition at 40 µg/mL [10] was 6%, the Activity [11] was “Active” and the Activity [12] was “inactive”. The Activity [13] was “Active”, the Activity [14] was “Active” and the Activity [15] was “Active”. The Activity [16] was “Active”, the Activity [17] was “Active” and the Activity [18] was “Active”. The Activity [19] was “Active”, the Activity [20] was “inactive” and the Activity [21] was “Active”. The Activity [22] was “Active”, the Activity [23] was “Active” and the Activity [24] was “Active”. For the same compound, the Activity [25] was “Active”, the Activity [26] was “Active” and the Activity [27] was “Active”. For the same compound, the Activity [28] was “Active”, the Activity [29] was “Active” and the Activity [30] was “Active”.

In the case of CN(C/C=C/C#CC(C)(C)C)Cc1cccc2ccccc12, the Activity [14] is reported as “Active”.

For CC(=O)N1CCN(c2ccc(OCC3COC(Cn4ccnc4)(c4ccc(Cl)cc4Cl)O3)cc2)CC1 (stereo not given), the Activity [14] was “Active”, the Activity [16] was “Active” and the Activity [21] was “Active”. For the same compound, the Activity [31] was “Active”.

Reference: ChEMBL document CHEMBL3739397, “Identification of an indoletriazoleamino acid conjugate as a highly effective antifungal agent” (2015)
